{
  "source": "patent US10407407B2",
  "about": "“Benzoimidazole derivatives as PAD4 inhibitors” (GLAXOSMITHKLINE INTELLECTUAL PROPERTY DEVELOPMENT LIMITED, priority 2015, dated 2019)",
  "data": [
    {"molecular_target": "T1, Recombinant human PAD2 (residues 1-665) (Homo sapiens, UniProt Q9Y2J8)", "T1 construct": "Recombinant human PAD2 (residues 1-665) was expressed in baculovirus-infected Sf9 insect cells; 6His-FLAG (N); made in house; host or cells: baculovirus-infected Sf9 insect cells", "T1 sequence (Q9Y2J8 whole entry, the tested form may be a part)": "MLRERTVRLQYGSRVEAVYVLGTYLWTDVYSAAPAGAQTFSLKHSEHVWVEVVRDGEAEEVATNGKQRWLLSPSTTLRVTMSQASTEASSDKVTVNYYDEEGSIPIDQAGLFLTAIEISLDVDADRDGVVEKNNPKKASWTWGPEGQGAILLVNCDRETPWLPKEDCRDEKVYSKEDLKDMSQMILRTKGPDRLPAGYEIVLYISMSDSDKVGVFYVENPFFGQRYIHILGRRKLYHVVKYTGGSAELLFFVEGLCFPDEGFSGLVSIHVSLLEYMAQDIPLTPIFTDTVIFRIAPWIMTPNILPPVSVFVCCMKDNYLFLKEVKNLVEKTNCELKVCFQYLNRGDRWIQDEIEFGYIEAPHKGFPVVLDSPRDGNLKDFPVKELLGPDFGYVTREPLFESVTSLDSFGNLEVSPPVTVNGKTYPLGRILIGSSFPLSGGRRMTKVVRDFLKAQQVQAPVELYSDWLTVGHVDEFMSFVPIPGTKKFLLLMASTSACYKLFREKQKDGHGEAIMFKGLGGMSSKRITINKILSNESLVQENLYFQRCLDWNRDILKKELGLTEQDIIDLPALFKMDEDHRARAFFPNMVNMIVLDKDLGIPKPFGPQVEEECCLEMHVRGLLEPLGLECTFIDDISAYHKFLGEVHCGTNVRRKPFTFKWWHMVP", "test": "PAD2 enzyme assay (FLINT NH3 release, BAEE substrate)", "format": "biochemical", "conditions": "PAD2 enzyme assay above or similar assays; to assess selectivity for PAD4 over PAD2; read-out: mean pIC50 (converted)", "method": "Activity of the final product was determined using a FLINT NH3 release assay.\n8 μl of PAD2 enzyme diluted to an assay concentration of 30 nM in assay buffer (100 mM HEPES, 50 mM NaCl, 2 mM DTT, 7.5% glycerol and 1.5 mM CHAPS pH 8), and added to wells containing 0.1 μl of various concentrations of compound or DMSO vehicle (0.8% final) in a Greiner high volume 384 well black plate. […] The reaction was stopped after 90 mins with the addition of […] stop/detection buffer containing 50 mM EDTA, 2.6 mM phthalaldehyde and 2.6 mM DTT.", "units": {"IC50": "µM"}, "values": [
      {"smiles": "CCn1c(-c2nc3cc(C(=O)N4CC[C@H](OC)[C@@H](N)C4)ccc3n2C)cc2ccccc21", "note": "(racemic) [Example 51, (+/−)-((trans)-3-Amino-4-methoxypiperidin-1-yl)(2-(1-ethyl-1H-indol-2-yl)-1-methyl-1H-benzo[d]imidazol-5-yl)methanone]", "IC50": "> 79.4"},
      {"smiles": "CCn1c(-c2nc3cc(C(=O)N4C[C@@H](N)CC[C@H]4C)ccc3n2C)cc2ccccc21", "note": "(single isomer, unassigned) [Example 54, cis-(5-Amino-2-methylpiperidin-1-yl)(2-(1-ethyl-1H-indol-2-yl)-1-methyl-1H-benzo[d]imidazol-5-yl)methanone]", "IC50": "> 79.4"},
      {"smiles": "CCn1c(-c2nc3cc(C(=O)N4C[C@H](C)C[C@H](N)C4)ccc3n2C)cc2ccccc21", "note": "(single isomer, unassigned) [Example 124, cis-(3-Amino-5-methylpiperidin-1-yl)(2-(1-ethyl-1H-indol-2-yl)-1-methyl-1H-benzo[d]imidazol-5-yl)methanone]", "IC50": "> 79.4"},
      {"smiles": "CCn1c(-c2nc3cc(C(=O)N4CCC[C@@H](N)C4)ccc3n2C)cc2ccccc21", "note": "[Example 1a]", "IC50": "≥ 10"},
      {"smiles": "CCn1c(-c2nc3cc(C(=O)N4CCC[C@@H](N)C4)ccc3n2C)cc2cccc(OC)c21", "note": "[Example 2, (3R)-1-({2-[1-ethyl-7-(methyloxy)-1H-indol-2-yl]-1-methyl-1H-benzimidazol-5-yl}carbonyl)-3-piperidinamine]", "IC50": "≥ 10"},
      {"smiles": "CC(C)n1c(-c2nc3cc(C(=O)N4CCC[C@@H](N)C4)ccc3n2C)cc2ccccc21", "note": "[Example 12, (3R)-1-({1-Methyl-2-[1-(1-methylethyl)-1H-indol-2-yl]-1H-benzimidazol-5-yl}carbonyl)-3-piperidinamine]", "IC50": "≥ 10"},
      {"smiles": "Cn1c(-c2cc3ccccc3n2CC2CC2)nc2cc(C(=O)N3CCC[C@@H](N)C3)ccc21", "note": "[Example 16, (3R)-1-({2-[1-(Cyclopropylmethyl)-1H-indol-2-yl]-1-methyl-1H-benzimidazol-5-yl}carbonyl)-3-piperidinamine]", "IC50": "≥ 10"},
      {"smiles": "Cn1c(-c2cc3ccccc3[nH]2)nc2cc(C(=O)N3CCC[C@@H](N)C3)ccc21", "note": "[Example 18, (3R)-1-{[2-(1H-Indol-2-yl)-1-methyl-1H-benzimidazol-5-yl]carbonyl}-3-piperidinamine]", "IC50": "≥ 10"},
      {"smiles": "CC(C)Cn1c(-c2nc3cc(C(=O)N4CCC[C@@H](N)C4)ccc3n2C)cc2ccccc21", "note": "[Example 19, (3R)-1-({1-Methyl-2-[1-(2-methylpropyl)-1H-indol-2-yl]-1H-benzimidazol-5-yl}carbonyl)-3-piperidinamine]", "IC50": "≥ 10"},
      {"smiles": "Cn1cc(Cn2c(-c3nc4cc(C(=O)N5CCC[C@@H](N)C5)ccc4n3C)cc3ccccc32)cn1", "note": "[Example 20a, (3R)-1-[(1-methyl-2-{1-[(1-methyl-1H-pyrazol-4-yl)methyl]-1H-indol-2-yl}-1H-benzimidazol-5-yl)carbonyl]-3-piperidinamine]", "IC50": "≥ 10"},
      {"smiles": "COCCn1c(-c2nc3cc(C(=O)N4CCC[C@@H](N)C4)ccc3n2C)cc2ccccc21", "note": "[Example 22, (3R)-1-[(1-methyl-2-{1-[2-(methyloxy)ethyl]-1H-indol-2-yl}-1H-benzimidazol-5-yl)carbonyl]-3-piperidinamine]", "IC50": "> 79.4"},
      {"smiles": "Cn1c(-c2cc3ccccc3n2CCO)nc2cc(C(=O)N3CCC[C@@H](N)C3)ccc21", "note": "[Example 29, 2-[2-(5-{[(3R)-3-Amino-1-piperidinyl]carbonyl}-1-methyl-1H-benzimidazol-2-yl)-1H-indol-1-yl]ethanol]", "IC50": "> 79.4"},
      {"smiles": "CCOc1ccc2cc(-c3nc4cc(C(=O)N5CCC[C@@H](N)C5)ccc4n3C)n(CC)c2c1", "note": "[Example 32, (R)-(3-Aminopiperidin-1-yl)(2-(6-ethoxy-1-ethyl-1H-indol-2-yl)-1-methyl-1H-benzo[d]imidazol-5-yl)methanone]", "IC50": "≥ 10"},
      {"smiles": "CCn1c(-c2nc3cc(C(=O)N4CCC[C@@H](N)C4)cc(OC(F)(F)F)c3n2C)cc2ccccc21", "note": "[Example 34, (R)-(3-Aminopiperidin-1-yl)(2-(1-ethyl-1H-indol-2-yl)-1-methyl-7-(trifluoromethoxy)-1H-benzo[d]imidazol-5-yl)methanone]", "IC50": "≥ 10"},
      {"smiles": "Cn1c(-c2nc3cc(C(=O)N4CCC[C@@H](N)C4)ccc3n2C)cc2ccccc21", "note": "[Example 37, (R)-(3-Aminopiperidin-1-yl)(1-methyl-2-(1-methyl-1H-indol-2-yl)-1H-benzo[d]imidazol-5-yl)methanone]", "IC50": "> 79.4"},
      {"smiles": "CCn1c(-c2nc3cc(C(=O)N4CCC[C@@H](N)C4)ccc3n2CCN)cc2ccccc21", "note": "[Example 48, (R)-(1-(2-Aminoethyl)-2-(1-ethyl-1H-indol-2-yl)-1H-benzo[d]imidazol-5-yl)(3-aminopiperidin-1-yl)methanone]", "IC50": "≥ 10"},
      {"smiles": "COc1cc(C(=O)N2CC[C@@H](O)[C@@H](N)C2)cc2nc(-c3cc4ccccc4n3CC(F)(F)F)n(C)c12", "note": "[Example 58a, ((3S,4R)-3-Amino-4-hydroxypiperidin-1-yl)(7-methoxy-1-methyl-2-(1-(2,2,2-trifluoroethyl)-1H-indol-2-yl)-1H-benzo[d]imidazol-5-yl)methanone]", "IC50": "≥ 10"},
      {"smiles": "COc1cc(C(=O)N2CC[C@H](O)[C@H](N)C2)cc2nc(-c3cc4ccccc4n3CC(F)(F)F)n(C)c12", "note": "[Example 59, ((3R,4S)-3-Amino-4-hydroxypiperidin-1-yl)(7-methoxy-1-methyl-2-(1-(2,2,2-trifluoroethyl)-1H-indol-2-yl)-1H-benzo[d]imidazol-5-yl)methanone]", "IC50": "≥ 10"},
      {"smiles": "CCn1c(-c2nc3cc(C(=O)N4CCC[C@@H](N)C4)cc(N(C)C)c3n2C)cc2ccccc21", "note": "[Example 63, (R)-(3-Aminopiperidin-1-yl)(7-(dimethylamino)-2-(1-ethyl-1H-indol-2-yl)-1-methyl-1H-benzo[d]imidazol-5-yl)methanone]", "IC50": "> 79.4"},
      {"smiles": "CCn1c(-c2nc3cc(C(=O)N4CC[C@@H](O)[C@@H](N)C4)cc(OC)c3n2C)cc2ccccc21", "note": "[Example 67, ((3S,4R)-3-Amino-4-hydroxypiperidin-1-yl)(2-(1-ethyl-1H-indol-2-yl)-7-methoxy-1-methyl-1H-benzo[d]imidazol-5-yl)methanone]", "IC50": "> 79.4"},
      {"smiles": "CCn1c(-c2nc3cc(C(=O)N4CCC[C@@H](N)C4)cc(NC)c3n2C)cc2ccccc21", "note": "[Example 68, (R)-(3-Aminopiperidin-1-yl)(2-(1-ethyl-1H-indol-2-yl)-1-methyl-7-(methylamino)-1H-benzo[d]imidazol-5-yl)methanone]", "IC50": "> 79.4"},
      {"smiles": "COc1cc(C(=O)N2CCC[C@@H](N)C2)cc2nc(-c3cc4ccccc4n3CC3CCOCC3)n(C)c12", "note": "[Example 70, (R)-(3-Aminopiperidin-1-yl)(7-methoxy-1-methyl-2-(1-((tetrahydro-2H-pyran-4-yl)methyl)-1H-indol-2-yl)-1H-benzo[d]imidazol-5-yl)methanone]", "IC50": "> 79.4"},
      {"smiles": "COc1cc(C(=O)N2CCC[C@@H](N)C2)cc2nc(-c3cc4ccccc4n3CC#N)n(C)c12", "note": "[Example 74, (R)-2-(2-(5-(3-Aminopiperidine-1-carbonyl)-7-methoxy-1-methyl-1H-benzo[d]imidazol-2-yl)-1H-indol-1-yl)acetonitrile]", "IC50": "≥ 10"},
      {"smiles": "CCc1cc(C(=O)N2CCC[C@@H](N)C2)cc2nc(-c3cc4ccccc4n3CC)n(C)c12", "note": "[Example 75, (R)-(3-Aminopiperidin-1-yl)(7-ethyl-2-(1-ethyl-1H-indol-2-yl)-1-methyl-1H-benzo[d]imidazol-5-yl)methanone]", "IC50": "≥ 10"},
      {"smiles": "CCn1c(-c2nc3cc(C(=O)N4CCC[C@@H](N)C4)ccc3n2CC)cc2ccccc21", "note": "[Example 95, (R)-(3-Aminopiperidin-1-yl)(1-ethyl-2-(1-ethyl-1H-indol-2-yl)-1H-benzo[d]imidazol-5-yl)methanone]", "IC50": "> 79.4"},
      {"smiles": "CCn1c(-c2nc3cc(C(=O)N4CCC[C@@H](N)C4)cnc3n2C)cc2ccccc21", "note": "[Example 96, (R)-(3-Aminopiperidin-1-yl)(2-(1-ethyl-1H-indol-2-yl)-3-methyl-3H-imidazo[4,5-b]pyridin-6-yl)methanone]", "IC50": "> 79.4"},
      {"smiles": "CCn1c(-c2nc3cc(C(=O)N4CCC[C@@H](N)C4)cc(OCCOC)c3n2C)cc2ccccc21", "note": "[Example 111, (R)-(3-Aminopiperidin-1-yl)(2-(1-ethyl-1H-indol-2-yl)-7-(2-methoxyethoxy)-1-methyl-1H-benzo[d]imidazol-5-yl)methanone]", "IC50": "≥ 10"},
      {"smiles": "CCn1c(-c2nc3cc(C(=O)N4CCC[C@@H](N)C4)cc(OCC#N)c3n2C)cc2ccccc21", "note": "[Example 113, (R)-2-((5-(3-Aminopiperidine-1-carbonyl)-2-(1-ethyl-1H-indol-2-yl)-1-methyl-1H-benzo[d]imidazol-7-yl)oxy)acetonitrile]", "IC50": "≥ 10"},
      {"smiles": "CCn1c(-c2nc3cc(C(=O)N4CCC[C@@H](N)C4)cc(OCC(N)=O)c3n2C)cc2ccccc21", "note": "[Example 114, (R)-2-((5-(3-Aminopiperidine-1-carbonyl)-2-(1-ethyl-1H-indol-2-yl)-1-methyl-1H-benzo[d]imidazol-7-yl)oxy)acetamide]", "IC50": "> 79.4"},
      {"smiles": "CCn1c(-c2nc3cc(C(=S)N4CCC[C@@H](N)C4)ccc3n2C)cc2ccccc21", "note": "[Example 135, (R)-(3-Aminopiperidin-1-yl)(2-(1-ethyl-1H-indol-2-yl)-1-methyl-1H-benzo[d]imidazol-5-yl)methanethione]", "IC50": "≥ 10"}
    ]}
  ]
}
